The text below walks through data of patent US10028956B2, “Methods of treating various cancers using an AXL/cMET inhibitor in combination with other agents” (Ignyta, Inc., priority 2013, dated 2018).

For one assay, the target named is T1, AXL (Homo sapiens, UniProt P30530).
T1 sequence (P30530 26-894): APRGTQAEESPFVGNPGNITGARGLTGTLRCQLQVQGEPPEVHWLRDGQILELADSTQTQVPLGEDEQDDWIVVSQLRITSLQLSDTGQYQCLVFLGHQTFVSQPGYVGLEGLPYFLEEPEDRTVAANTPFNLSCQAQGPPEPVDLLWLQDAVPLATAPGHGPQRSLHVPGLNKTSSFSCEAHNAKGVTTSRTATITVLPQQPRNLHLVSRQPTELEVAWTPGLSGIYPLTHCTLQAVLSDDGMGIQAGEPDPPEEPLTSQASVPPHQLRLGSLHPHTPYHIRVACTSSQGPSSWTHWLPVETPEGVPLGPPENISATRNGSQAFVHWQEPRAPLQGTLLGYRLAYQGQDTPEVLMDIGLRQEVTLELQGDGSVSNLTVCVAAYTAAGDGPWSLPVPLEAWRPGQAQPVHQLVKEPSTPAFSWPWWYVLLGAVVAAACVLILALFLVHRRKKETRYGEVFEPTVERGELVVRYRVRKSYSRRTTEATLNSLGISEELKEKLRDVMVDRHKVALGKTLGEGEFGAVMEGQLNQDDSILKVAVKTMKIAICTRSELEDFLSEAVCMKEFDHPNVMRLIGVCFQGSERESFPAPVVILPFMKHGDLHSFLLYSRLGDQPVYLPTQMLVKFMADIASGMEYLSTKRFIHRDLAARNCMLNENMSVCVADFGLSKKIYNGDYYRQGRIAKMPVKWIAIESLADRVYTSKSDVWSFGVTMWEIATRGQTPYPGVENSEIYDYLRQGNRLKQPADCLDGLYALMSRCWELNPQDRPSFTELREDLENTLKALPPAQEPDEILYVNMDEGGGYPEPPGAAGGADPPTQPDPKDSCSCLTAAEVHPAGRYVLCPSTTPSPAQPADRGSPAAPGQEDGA
Put plainly: Cellular AXL inhibition in AXL-transfected 293GT cells. Format: cell-based.

The next assay concerns the target c-Met (Homo sapiens, UniProt P08581). Put plainly: c-Met enzyme inhibition. Format: biochemical.
Assay [1] has as its system EBC-1 Human NSCLC xenografts. Put plainly: Anti-tumor efficacy in EBC-1 NSCLC xenografts. Format: in vivo, mice. The source says:
The human NSCL cancer cell line, EBC-1 was purchased from ATCC (American Tissue Culture Collection, Manassas, Va.) and cultured in DMEM medium with 10% fetal bovine serum (FBS, Cat# SH3007003, Hyclone Laboratory Inc, Logan, Utah). Female Nu/Nu mice (6-8 weeks, Charles River Laboratory, Wilmington, Mass.) were maintained 5/cage in microisolator units on a standard laboratory diet (Teklad Labchow, Harlan Teklad, Madison, Wis.). Animals were housed under humidity- and temperature-controlled conditions and the light/dark cycle was set at 12-hour intervals. Mice were quarantined at least 1 week prior to experimental manipulation. […] The mice were then monitored daily. […] The length (L) and width (W) of each tumor was measured with a vernier caliper and the mouse body weight was determined every 2-3 days. The tumor volumes were then calculated with the formula of 0.5236*L*W*(L+W)/2. […] Plasma and tumor samples were obtained at 2 hours post final dose at each dose level, and the compound levels in plasma and tumor lysates were measured by LC-MS/MS. The TGI values were calculated at the end of study by comparing the tumor volumes (TV) of each CEP-40783-treatment group with those of vehicle-treated group with the following formula: 1-(the last day TV of compound-treated group/the last day TV of vehicle-treated group).

Assay [2] deals with CTG-0170 erlotinib-insensitive primary NSCLC human TumorGraft. Put plainly: NSCLC TumorGraft model CTG-0170. The assay is classed as in vivo, mice. To be noted: for % Tumor Growth Inhibition: CTG-0170, 10 days. How it is done:
Methods (for the experiments shown in FIGS. 10 and 11) • Female immunocompromised nu/nu mice (Harlan) between 6-9 weeks of age were housed on irradiated papertwist-enriched ⅛″ corncob bedding (Sheperd) in individual HEPA ventilated cages (Innocage® IVC, Innovive USA) on a 12-hour light-dark cycle at 68-74° F. (20-23° C.) and 30-70% humidity. Animals were fed water ad libitum (reverse osmosis, 2 ppm Cl2) and an irradiated Test rodent diet (Teklad 2919) consisting of 19% protein, 9% fat, and 4% fiber. • Tumor Models: Champions TumorGraft models of NSCLC are owned by Champions Oncology. In this study, animals were implanted unilaterally on the right flank with tumor fragments harvested from host animals. […] Erlotinib (manufacturer: OSI Pharmaceuticals; National Drug Code: 50242-062-01; Lot #: US0002) was formulated using 100% PEG-400 as the vehicle according to manufacturer's specifications.
Efficacy measurements: Beginning Day 0, tumor dimensions were measured twice weekly by digital caliper (Fowler Ultra-Cal IV) and data including individual and mean estimated tumor volumes (Mean TV±SEM) were recorded for each group; tumor volume was calculated using the formula TV=width^2×length×0.52. At study completion, percent tumor growth inhibition (% TGI) values were calculated and reported for each treatment group (T) versus control (C) using initial (i) and final (f) tumor measurements by the formula: % TGI=1−Tf−Ti/Cf−C; single agent or combination therapies resulting in a TGI>50 at study completion are considered active in the tested model at the evaluated treatment regimen according to NCI guidelines. Individual mice reporting a tumor volume ≤50% of the Day 0 measurement for two consecutive measurements over a seven day period were considered partial responders (PR). If the PR persisted until study completion, percent tumor regression (% TR) was determined using the formula: % TR=1−Tf/Ti×100; a mean value was calculated if multiple PR mice occurred in one group. Individual mice lacking palpable tumors (<4×4 mm^2 for two consecutive measurements over a seven day period) were classified as complete responders (CR); a CR that persisted until study completion was considered a tumor-free survivor (TFS). TFS animals are excluded from efficacy calculations. Statistical differences in tumor volume were determined using a two-tailed One-Way Analysis of Variance (ANOVA) followed by the Dunett's multiple comparisons test comparing treated groups with control and combinations with standard agent alone when possible. All data collected in this study was managed electronically and stored on a redundant server system.

Molecules are shown by their SMILES. Marks after values point to notes of the source that are not given here.

c-Met, sequence (P08581 25-1390): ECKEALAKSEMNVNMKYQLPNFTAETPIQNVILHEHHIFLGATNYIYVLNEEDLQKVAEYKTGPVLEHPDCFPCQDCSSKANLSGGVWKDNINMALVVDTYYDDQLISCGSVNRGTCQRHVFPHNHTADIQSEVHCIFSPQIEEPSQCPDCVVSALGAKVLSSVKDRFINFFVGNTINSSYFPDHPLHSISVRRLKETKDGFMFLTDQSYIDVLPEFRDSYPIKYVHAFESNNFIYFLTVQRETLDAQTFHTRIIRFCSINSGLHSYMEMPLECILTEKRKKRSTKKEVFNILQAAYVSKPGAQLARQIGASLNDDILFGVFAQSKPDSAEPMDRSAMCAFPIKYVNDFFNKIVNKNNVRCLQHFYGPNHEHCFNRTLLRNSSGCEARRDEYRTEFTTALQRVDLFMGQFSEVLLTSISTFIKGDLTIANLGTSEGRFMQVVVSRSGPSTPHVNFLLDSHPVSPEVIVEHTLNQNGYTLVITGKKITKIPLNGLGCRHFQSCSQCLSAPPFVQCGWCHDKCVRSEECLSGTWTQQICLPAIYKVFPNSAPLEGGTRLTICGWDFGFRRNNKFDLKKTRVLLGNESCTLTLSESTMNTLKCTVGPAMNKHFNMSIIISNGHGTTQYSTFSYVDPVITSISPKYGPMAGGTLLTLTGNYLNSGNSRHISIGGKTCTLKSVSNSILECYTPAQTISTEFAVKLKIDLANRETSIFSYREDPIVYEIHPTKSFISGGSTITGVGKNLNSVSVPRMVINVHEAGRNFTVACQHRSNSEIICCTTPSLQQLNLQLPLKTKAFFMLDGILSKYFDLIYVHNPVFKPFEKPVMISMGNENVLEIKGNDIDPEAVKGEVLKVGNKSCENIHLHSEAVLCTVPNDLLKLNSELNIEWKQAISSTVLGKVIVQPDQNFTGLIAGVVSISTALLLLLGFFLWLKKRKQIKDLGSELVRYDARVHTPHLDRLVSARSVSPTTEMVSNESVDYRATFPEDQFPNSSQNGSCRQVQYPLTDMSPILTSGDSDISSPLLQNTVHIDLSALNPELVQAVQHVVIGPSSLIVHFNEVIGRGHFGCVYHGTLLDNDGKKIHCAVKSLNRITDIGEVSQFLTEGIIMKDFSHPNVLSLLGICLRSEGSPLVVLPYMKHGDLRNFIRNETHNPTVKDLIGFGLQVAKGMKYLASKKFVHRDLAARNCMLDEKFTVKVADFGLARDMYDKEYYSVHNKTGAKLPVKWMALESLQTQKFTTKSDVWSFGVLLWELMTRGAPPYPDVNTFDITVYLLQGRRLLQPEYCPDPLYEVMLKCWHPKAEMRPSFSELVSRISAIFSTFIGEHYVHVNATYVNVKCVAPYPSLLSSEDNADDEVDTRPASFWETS

Take `COc1cc2nccc(Oc3ccc(NC(=O)c4cn(C(C)C)c(=O)n(-c5ccc(F)cc5)c4=O)cc3F)c2cc1OC` [CEP-40783, 3-(4-Fluorophenyl)-1-isopropyl-2,4-dioxo-1,2,3,4-tetrahydropyrimidine-5-carboxylic acid [4-(6,7-dimethoxyquinolin-4-yloxy)-3-fluorophenyl]-amide]: the IC50 against AXL stood at 0.26 nM; at c-Met, 12 nM. Besides, the “anti-tumor efficacy (tumor volume)” value was “tumor stasis and partial regressions” in assay [1] (3 mg/kg oral qd); “tumor regressions” in assay [1] (10 mg/kg and 30 mg/kg oral qd). The figures for the “% Tumor Growth Inhibition” value in assay [2] (10 mg/kg po/qd) and in assay [2] (30 mg/kg po/qd) were 104%*† and 107%*†, respectively. Besides, in assay [2] (CTG-0170, oral 10 mg/kg and 30 mg/kg), the “efficacy in erlotinib-insensitive TumorGraft” value is on record as “tumor regressions”.

What is called IC50 is the concentration that gives 50% inhibition. Read a high IC50 as lower potency.
